Where a name gives a salt, the structure may show the parent alone. Read-outs that look alike come from different tables or passages of the source.
Tests used:
[1] = biological target: T1, human 5-hydroxytryptamine2C (h5HT2C) receptor (Homo sapiens, UniProt P28335); experiment: 5HT2C receptor binding ([125I]DOI displacement, CHO cell membranes)
T1 construct: expressed in transfected cells; host or cells: CHO (Chinese Hamster Ovary) cells; membrane preparation
T1 sequence (P28335 33-458): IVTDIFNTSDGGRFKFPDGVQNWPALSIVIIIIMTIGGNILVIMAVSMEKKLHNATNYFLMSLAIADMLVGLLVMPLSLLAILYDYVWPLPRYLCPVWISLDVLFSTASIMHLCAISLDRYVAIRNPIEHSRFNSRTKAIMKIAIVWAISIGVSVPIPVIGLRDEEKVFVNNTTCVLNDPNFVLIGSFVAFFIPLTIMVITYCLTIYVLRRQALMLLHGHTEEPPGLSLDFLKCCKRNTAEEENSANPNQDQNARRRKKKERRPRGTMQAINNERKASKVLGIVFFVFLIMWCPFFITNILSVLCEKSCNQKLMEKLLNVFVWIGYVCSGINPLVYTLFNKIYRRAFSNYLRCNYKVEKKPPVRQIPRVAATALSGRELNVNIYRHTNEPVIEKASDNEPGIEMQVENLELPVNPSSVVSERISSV

| Structure (SMILES) | melting point | Ki [1] [nM] | other results |
| --- | --- | --- | --- |
| c1cc2c3c(c1)CC1CCCC1N3CCNC2 (stereo not drawn) (as salt: HCl) [Example 1, trans isomer, Trans-1,2,3,4,8,8a,9,10,11,11a-decahydro-cyclopenta[b][1,4]diazapino[6,7,1-ij]quinoline] | 190 °C (dec.) | – | – |
| c1cc2c3c(c1)C[C@@H]1CCC[C@@H]1N3CCNC2 (relative stereo) (as salt: HCl) [Example 1, cis isomer, Cis 1,2,3,4,8,8a,9,10,11,11a-decahydro-cyclopenta[b][1,4]diazepino[6,7,1-ij]quinoline] | 180 to 190 °C (dec.) | – | – |
| c1cc2c3c(c1)C[C@H]1CCCC[C@H]1N3CCNC2 (relative stereo) (as salt: HCl) [Example 2, cis isomer, (Cis)-1,2,3,4,8a,9,10,11,12,12a,-decahydro-8H-[1,4]diazepino[6,7,1-de]acridine] | 150 to 155 °C | – | – |
| c1cc2c3c(c1)C[C@@H]1CCC[C@@H]1N3CCNC2 (relative stereo) [Example 1, cis isomer, Cis 1,2,3,4,8,8a,9,10,11,11a-decahydro-cyclopenta[b][1,4]diazepino[6,7,1-ij]quinoline] | – | 118 | – |
| c1cc2c3c(c1)C[C@H]1CCCC[C@H]1N3CCNC2 (relative stereo) [Example 2, cis isomer, (Cis)-1,2,3,4,8a,9,10,11,12,12a,-decahydro-8H-[1,4]diazepino[6,7,1-de]acridine] | – | 511 | – |
| c1cc2c3c(c1)CC1CCCC1N3CCNC2 (stereo not drawn) [Example 1, trans isomer, Trans-1,2,3,4,8,8a,9,10,11,11a-decahydro-cyclopenta[b][1,4]diazapino[6,7,1-ij]quinoline] | – | 71 | – |
| c1cc2c3c(c1)CC1CCCCC1N3CCNC2 (stereo not drawn) [Example 2, trans isomer, (Trans)-1,2,3,4,8a,9,10,11,12,12a,-decahydro-8H-[1,4]diazepino[6,7,1-de]acridine] | 95 °C | 513 | – |
| CSc1ccc2c(c1)C(N1CCN(C)CC1)Cc1ccccc1S2 (stereo not shown) [Methiothepin, reference compound] | – | – | Ki ([1]; [125I]DOI binding, CHO membranes expressing h5HT2C, read-out: Ki (95% confidence interval), reference compounds): 4.6 nM |
| COc1cc(CC(C)N)c(OC)cc1I (stereo not shown) [[^125I] DOI, reference compound] | – | – | Kd ([1]; read-out: dissociation constant, KD of [125I] DOI at the human serotonin 5HT2C receptor, saturation binding with increasing concentrations of [125I] DOI): 0.4 nM |
